Test results taken from article PMC8151276, “An Integrated Approach toward NanoBRET Tracers for Analysis of GPCR Ligand Engagement” (Molecules, 2021).

Tests used:
Type in all cases: binding
LGR4 = target: T1, LGR4 (Homo sapiens, UniProt Q9BXB1); test: NanoBRET screen HiBiT-LGR4 in HEK293
T1 construct: purchased Promega (in-house HiBiT-GPCR construct library, NanoBRET)
T1 sequence (Q9BXB1 25-951): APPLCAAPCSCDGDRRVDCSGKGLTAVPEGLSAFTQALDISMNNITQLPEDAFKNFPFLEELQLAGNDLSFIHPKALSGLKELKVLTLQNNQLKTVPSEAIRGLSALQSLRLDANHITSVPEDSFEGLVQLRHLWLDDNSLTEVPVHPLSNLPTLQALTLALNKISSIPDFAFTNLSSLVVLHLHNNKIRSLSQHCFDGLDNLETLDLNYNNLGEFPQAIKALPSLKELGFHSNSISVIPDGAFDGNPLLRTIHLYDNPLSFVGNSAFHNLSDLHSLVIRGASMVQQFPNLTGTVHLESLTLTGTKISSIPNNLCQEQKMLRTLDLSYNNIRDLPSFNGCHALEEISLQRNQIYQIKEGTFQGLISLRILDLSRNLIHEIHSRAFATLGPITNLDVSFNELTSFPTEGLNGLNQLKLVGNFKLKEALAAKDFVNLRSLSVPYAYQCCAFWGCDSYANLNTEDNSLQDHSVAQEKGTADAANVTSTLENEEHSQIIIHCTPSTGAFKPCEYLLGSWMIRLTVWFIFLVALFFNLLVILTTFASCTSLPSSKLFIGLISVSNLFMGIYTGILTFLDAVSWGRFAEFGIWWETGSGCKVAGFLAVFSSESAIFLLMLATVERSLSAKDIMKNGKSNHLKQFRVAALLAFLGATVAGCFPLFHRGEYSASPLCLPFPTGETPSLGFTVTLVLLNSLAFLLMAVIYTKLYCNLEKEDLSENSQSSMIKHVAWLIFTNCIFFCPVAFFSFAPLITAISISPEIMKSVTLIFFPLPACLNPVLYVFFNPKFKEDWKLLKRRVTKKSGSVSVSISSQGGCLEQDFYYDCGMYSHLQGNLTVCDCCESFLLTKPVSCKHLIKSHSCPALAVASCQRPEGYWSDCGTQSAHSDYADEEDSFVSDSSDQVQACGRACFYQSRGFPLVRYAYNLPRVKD
Method: (§1) Each tracer candidate was screened across the entire library of HiBiT-GPCR constructs using NanoBRET as the detection modality. As depicted in Figure 4A, the specificity of interactions was evaluated through decrease in BRET due to competitive displacement of a bound tracer by excess parental compound. Each tracer was analyzed for binding to each HiBiT-GPCR fusion in the absence and in the presence of competing parental compound. Briefly, HEK293 cells were transfected with HiBiT-GPCR constructs diluted into promoterless DNA to reduce expression and maximize translocation to the cell surface. Each tracer candidate was then screened at concentrations of 1 μM and 0.1 μM across cells expressing these fusions. Cells were treated for 1.5 h with tracer either alone or in the presence of 20 μM competing parental compound (i.e., control). BRET was measured upon addition of purified LgBiT and subsequent complementation with HiBiT genetically fused to a GPCR. The specificity of interactions was assessed through a decrease in BRET signal due to competitive displacement of the bound tracer. To further gauge the robustness of these interactions, the fold response over the control (i.e., BRETtracer/BRETcontrol) was calculated. We chose a 1.5-fold response, which translates to ≥7-fold signal over noise as the minimal threshold required to score an interaction as positive. […]. Below we highlight the screening results obtained for our exemplary fluorescent tracers based on Clozapine, Amitriptyline and AZD1283.
(§2) HiBiT-GPCR DNA constructs were diluted in 10 mM Tris pH 8 to a final concentration of 0.01 μg/μL, arrayed in 96-well plates and stored at −20 °C. For transfection, HEK293 cells were suspended in Opti-MEM (without phenol red) supplemented with 2% fetal bovine serum (Seradigm) and 100 units/mL penicillin–streptomycin (Gibco) at a final concentration of 220,000 cells/mL and dispensed into white 96-well plates at 90 μL/well. Subsequent transfections and screens were carried using an Agilent Bravo Automated Liquid Handling Platform. First, the 96-well HiBiT DNA arrays were diluted 25-fold in Opti-MEM (without serum or phenol red) to a final concentration of 0.0004 μg/μL and 20 μL of the diluted DNAs were transferred into new 96-well plates. Next, promoterless carrier DNA (1 μg/μL) was diluted 25-fold (0.04 μg/μL) and then dispensed into the diluted arrays at 20 μL/well. Following brief mixing, Viafect transfection reagent (Promega) diluted 16-fold into Opti-MEM was dispensed into the plates at 40 μL/well. After mixing by pipetting, plates were incubated for 10 min on the pipetting station deck. The DNA-transfection reagent complexes were then added to plates containing cells. To facilitate the screen, 10 μL of DNA-transfection reagent complexes were added in duplicates to the top 4 and bottom 4 rows, resulting in two identical 48-well arrays per plate. Plates with transfected cells were incubated for 18–20 h at 37 °C/5% CO2. A screen of each tracer across the entire library using two different concentrations requires duplicate plates of transfected cells. Depending on the number of tracers being screened, transfections can be scaled up using the same ratios. The next day, for each tracer, four 20× screening solutions in tracer dilution buffer (Promega) were prepared: two duplicates at final concentration of 20 μM and two duplicates at a final concentration of 2 μM. A competing unmodified compound was added to one of each duplicate at a final concentration of 400 μM. The four resulting solutions were diluted 4-fold in Opti-MEM without serum or phenol red to generate 5× solutions (5 µM and 0.5 µM tracer +/− 100 μM competing compound). To screen the library, a BioTek MultiFlo FX liquid dispenser was used to dispense 22.5 µL of tracer solution to the top 4 rows and 22.5 µL tracer + competing compound solution to the 4 bottom rows. Plates were briefly mixed on an orbital shaker and incubated for 1.5 h at room temperature. […]

FZD7 = target: T2, FZD7 (Homo sapiens, UniProt O75084); test: NanoBRET screen HiBiT-FZD7 in HEK293
T2 construct: purchased Promega (in-house HiBiT-GPCR construct library, NanoBRET)
Method: as §1, §2

LTB4R = target: T3, LTB4R (Homo sapiens, UniProt Q15722); test: NanoBRET screen HiBiT-LTB4R in HEK293
T3 construct: purchased Promega (in-house HiBiT-GPCR construct library, NanoBRET)
Method: as §1, §2

HTR1E = target: T4, HTR1E (Homo sapiens, UniProt P28566); test: NanoBRET screen HiBiT-HTR1E in HEK293
T4 construct: purchased Promega (in-house HiBiT-GPCR construct library, NanoBRET)
Method: as §1, §2

CCR8 = target: T5, CCR8 (Homo sapiens, UniProt P51685); test: NanoBRET screen HiBiT-CCR8 in HEK293
T5 construct: purchased Promega (in-house HiBiT-GPCR construct library, NanoBRET)
Method: as §1, §2

[1] = tracer at 0.1μM, listed as amitriptyline-b-2-NB590
[2] = tracer at 1μM, listed as amitriptyline-b-2-NB590

T4 sequence (P28566 whole entry): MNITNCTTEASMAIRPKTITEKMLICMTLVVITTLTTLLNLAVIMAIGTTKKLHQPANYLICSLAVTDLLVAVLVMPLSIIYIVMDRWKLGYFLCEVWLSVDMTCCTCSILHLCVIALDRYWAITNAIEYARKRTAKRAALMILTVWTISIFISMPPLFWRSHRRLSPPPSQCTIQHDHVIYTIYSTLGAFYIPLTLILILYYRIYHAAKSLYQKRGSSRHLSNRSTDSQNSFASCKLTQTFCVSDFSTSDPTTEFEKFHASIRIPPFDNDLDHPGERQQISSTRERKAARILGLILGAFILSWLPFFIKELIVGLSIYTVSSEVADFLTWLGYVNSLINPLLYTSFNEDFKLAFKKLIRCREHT
T5 sequence (P51685 whole entry): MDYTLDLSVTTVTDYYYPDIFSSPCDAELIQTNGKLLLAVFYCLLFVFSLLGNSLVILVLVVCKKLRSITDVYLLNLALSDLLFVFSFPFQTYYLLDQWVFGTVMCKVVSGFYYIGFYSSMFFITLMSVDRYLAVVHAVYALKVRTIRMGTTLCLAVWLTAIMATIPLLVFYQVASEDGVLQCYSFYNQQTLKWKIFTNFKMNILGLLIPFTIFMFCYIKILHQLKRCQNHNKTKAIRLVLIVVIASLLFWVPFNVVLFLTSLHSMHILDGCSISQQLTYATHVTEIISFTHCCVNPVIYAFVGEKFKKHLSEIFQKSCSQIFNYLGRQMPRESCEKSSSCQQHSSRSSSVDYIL
T3 sequence (Q15722 whole entry): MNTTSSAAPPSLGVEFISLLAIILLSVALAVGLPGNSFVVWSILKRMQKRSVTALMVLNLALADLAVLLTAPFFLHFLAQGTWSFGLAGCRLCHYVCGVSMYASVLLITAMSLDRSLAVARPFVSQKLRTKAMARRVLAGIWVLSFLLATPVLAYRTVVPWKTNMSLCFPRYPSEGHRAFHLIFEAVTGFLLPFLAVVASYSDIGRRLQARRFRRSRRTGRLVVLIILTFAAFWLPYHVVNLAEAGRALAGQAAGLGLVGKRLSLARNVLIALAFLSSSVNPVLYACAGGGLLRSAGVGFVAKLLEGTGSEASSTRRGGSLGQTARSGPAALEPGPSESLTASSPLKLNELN

## CCOC(=O)c1cc(C#N)c(N2CCC(C(=O)NS(=O)(=O)Cc3ccccc3/C=C/C(=O)NCCNC(=O)CCc3ccc4n3[B-](F)(F)[N+]3=C(c5ccc[nH]5)C=CC3=C4)CC2)nc1C [AZD1283-1-NB590]
LGR4; LGR4, 0.1μM
  NanoBRET Fold Response: 1.01
LGR4; LGR4, 1μM
  NanoBRET Fold Response: 0.97
FZD7; FZD7, 0.1μM
  NanoBRET Fold Response: 1.03
FZD7; FZD7, 1μM
  NanoBRET Fold Response: 1.04
LTB4R; LTB4R, 0.1μM
  NanoBRET Fold Response: 1.16
LTB4R; LTB4R, 1μM
  NanoBRET Fold Response: 1.16
HTR1E; HTR1E, 0.1μM
  NanoBRET Fold Response: 0.94
HTR1E; HTR1E, 1μM
  NanoBRET Fold Response: 0.96
CCR8; CCR8, 0.1μM
  NanoBRET Fold Response: 1.04
CCR8; CCR8, 1μM
  NanoBRET Fold Response: 1.18

## N#CN=C(NCCCOc1cccc(CN2CCCCC2)c1)NCCNC(=O)CCOCCOCCOCCOCCNC(=O)CCc1ccc2n1[B-](F)(F)[N+]1=C(c3ccc[nH]3)C=CC1=C2 [Aminopotentidine-2-NB590]
LGR4; LGR4, tracer 0.1μM
  NanoBRET Fold Response: 1.01
LGR4; LGR4, tracer 1μM
  NanoBRET Fold Response: 1.02
FZD7; FZD7, tracer 0.1μM
  NanoBRET Fold Response: 0.94
FZD7; FZD7, tracer 1μM
  NanoBRET Fold Response: 0.99
LTB4R; LTB4R, tracer 0.1μM
  NanoBRET Fold Response: 1.03
LTB4R; LTB4R, tracer 1μM
  NanoBRET Fold Response: 0.99
HTR1E; HTR1E, tracer 0.1μM
  NanoBRET Fold Response: 0.93
HTR1E; HTR1E, tracer 1μM
  NanoBRET Fold Response: 1.06
CCR8; CCR8, tracer 0.1μM
  NanoBRET Fold Response: 0.99
CCR8; CCR8, tracer 1μM
  NanoBRET Fold Response: 0.89

## CN(C)CCC=C1c2ccccc2CCc2ccc(C(=O)NCCNC(=O)CCOCCOCCOCCOCCNC(=O)CCc3ccc4n3[B-](F)(F)[N+]3=C(c5ccc[nH]5)C=CC3=C4)cc21 [Amitriptyline-a-2-NB590]
FZD7; tracer at 0.1μM
  NanoBRET Fold Response: 0.89
FZD7; tracer at 1μM
  NanoBRET Fold Response: 0.97
LTB4R; tracer at 0.1μM
  NanoBRET Fold Response: 1.02
LTB4R; tracer at 1μM
  NanoBRET Fold Response: 1.00
HTR1E; tracer at 0.1μM
  NanoBRET Fold Response: 1.04
HTR1E; tracer at 1μM
  NanoBRET Fold Response: 1.00
CCR8; tracer at 0.1μM
  NanoBRET Fold Response: 0.94
CCR8; tracer at 1μM
  NanoBRET Fold Response: 0.97

## CN(C)CCC=C1c2ccccc2CCc2ccc(C(=O)NCCNC(=O)CCOCCOCCOCCOCCNC(=O)CCc3ccc4n3[B-](F)(F)[N+]3=C(c5ccc[nH]5)C=CC3=C4)cc21 [Amitriptyline-b-2-NB590]
LGR4; tracer at 0.1μM
  NanoBRET Fold Response: 1.00
LGR4; tracer at 1μM
  NanoBRET Fold Response: 0.98
FZD7; [1]
  NanoBRET Fold Response: 1.16
FZD7; [2]
  NanoBRET Fold Response: 1.16
LTB4R; [2]
  NanoBRET Fold Response: 1.02
HTR1E; [1]
  NanoBRET Fold Response: 1.01
HTR1E; [2]
  NanoBRET Fold Response: 0.95
CCR8; [1]
  NanoBRET Fold Response: 1.03
CCR8; [2]
  NanoBRET Fold Response: 1.03

## CN(CCC=C1c2ccccc2CCc2ccccc21)C(=O)CCOCCOCCOCCOCCNC(=O)CCc1ccc2n1[B-](F)(F)[N+]1=C(c3ccc[nH]3)C=CC1=C2 [Amitriptyline-e-2-NB590]
FZD7; tracer at 1μM
  NanoBRET Fold Response: 1.02
LTB4R; tracer at 1μM
  NanoBRET Fold Response: 1.03
HTR1E; tracer at 1μM
  NanoBRET Fold Response: 0.96
CCR8; tracer at 1μM
  NanoBRET Fold Response: 0.79

## COc1ccc2c(n1)c(CCNC(C)=O)cn2CCNC(=O)CCc1ccc2n1[B-](F)(F)[N+]1=C(c3ccc[nH]3)C=CC1=C2 [Azamelatonin-1-NB590]
LGR4; 0.1μM tracer
  NanoBRET Fold Response: 1.20
LGR4; 1μM tracer
  NanoBRET Fold Response: 0.99
FZD7; 0.1μM tracer
  NanoBRET Fold Response: 1.11
FZD7; 1μM tracer
  NanoBRET Fold Response: 1.11
LTB4R; 0.1μM tracer
  NanoBRET Fold Response: 0.97
LTB4R; 1μM tracer
  NanoBRET Fold Response: 0.97
HTR1E; 0.1μM tracer
  NanoBRET Fold Response: 0.99
HTR1E; 1μM tracer
  NanoBRET Fold Response: 0.99
CCR8; 0.1μM tracer
  NanoBRET Fold Response: 1.13
CCR8; 1μM tracer
  NanoBRET Fold Response: 1.09

## COc1ccc2[nH]c(-c3ccc(CNC(=O)CCOCCOCCOCCOCCNC(=O)CCc4ccc5n4[B-](F)(F)[N+]4=C(c6ccc[nH]6)C=CC4=C5)cc3)c(CCNC(C)=O)c2n1 [AzomelatoninICO9-2-NB590]
LGR4; 0.1μM tracer
  NanoBRET Fold Response: 1.10
LGR4; 1μM tracer
  NanoBRET Fold Response: 1.00
FZD7; 0.1μM tracer
  NanoBRET Fold Response: 1.29
FZD7; 1μM tracer
  NanoBRET Fold Response: 0.84
LTB4R; 0.1μM tracer
  NanoBRET Fold Response: 1.07
LTB4R; 1μM tracer
  NanoBRET Fold Response: 0.99
HTR1E; 0.1μM tracer
  NanoBRET Fold Response: 0.97
HTR1E; 1μM tracer
  NanoBRET Fold Response: 1.18
CCR8; 0.1μM tracer
  NanoBRET Fold Response: 0.68
CCR8; 1μM tracer
  NanoBRET Fold Response: 1.10
